Measured values published in patent US20240342150A1 (priority 2021, published 2024).
Like-named read-outs stand apart in the source and are kept apart here.

Legend:
[1] = system: SARS-CoV-2 (Wuhan); assay: microbe, parasite or virus in culture; assay type: cell-based; settings: Severe acute respiratory syndrome coronavirus 2, Vero C1008
[2] = system: Vero E6 cells; settings: for % viable cells: not infected Vero E6 cells

O=C(c1ccc(OCCN2CCCCC2)cc1)c1c(-c2ccc(O)cc2)sc2cc(O)ccc12 [Raloxifene, 1-[6-hydroxy-2-(4-hydroxyphenyl)benzo[b]thien-3-yl]-1-[4-[2-(1-piperidinyl)ethoxy]phenyl]methanone]
IC50 [1]: 5.92 µM
% viable cells ([2]; Raloxifene 0.23 μM, 48 h): 100%
% viable cells ([2]; Raloxifene 0.23 μM, 72 h): 102%
% viable cells ([2]; Raloxifene 0.46 μM, 48 h): 95%
% viable cells ([2]; Raloxifene 0.46 μM, 72 h): 95%
% viable cells ([2]; Raloxifene 0.94 μM, 48 h): 95%
% viable cells ([2]; Raloxifene 0.94 μM, 72 h): 96%
% viable cells ([2]; Raloxifene 1.87 μM, 48 h): 99%
% viable cells ([2]; Raloxifene 1.87 μM, 72 h): 97%
% viable cells ([2]; Raloxifene 3.75 μM, 48 h): 93%
% viable cells ([2]; Raloxifene 3.75 μM, 72 h): 96%
% viable cells ([2]; Raloxifene 7.5 μM, 48 h): 92%
% viable cells ([2]; Raloxifene 7.5 μM, 72 h): 97%
% viable cells ([2]; Raloxifene 15 μM, 48 h): 86%
% viable cells ([2]; Raloxifene 15 μM, 72 h): 76%
effect on cell viability ([2]; Raloxifene 15 μM, crystal violet staining): reduced percentage of viable cells
effect on cell viability ([2]; lower drug concentrations (7.5 to 0.23 μM)): No significant effect on cell viability
